Measured values published in patent US5061794A, “Cephalosporin derivatives, and antibacterial agents” (priority 1986, dated 1991).
Values after ≈ are worked out from the molar mass of the structure shown. Where two headings read alike, the source gives them in different places.

Columns and labels:
Ps. cepacia 23 = assay: in vitro antibacterial activity, agar plate dilution method (MIC); format: cell-based, Pseudomonas cepacia; conditions: Burkholderia cepacia, 23, 16 h, read-out: Minimum Inhibitory Concentration (MIC)
Outline: (§1)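 Inoculum 10^6 CFU/ml; medium Mueller Hinton agar with graded antibiotic; 37° C./16 h; endpoint MIC (μg/ml).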

Ps. aeruginosa AKR17 = assay: as above; format: cell-based, Pseudomonas aeruginosa; conditions: Pseudomonas aeruginosa, 16 h; Ps. aeruginosa AKR17; 10^6 CFU/ml; read-out: Minimum Inhibitory Concentration (MIC)
Outline: as §1

Ps. aeruginosa AK 109 = assay: as above; format: cell-based, Pseudomonas aeruginosa; conditions: Pseudomonas aeruginosa, AK109, 16 h, read-out: Minimum Inhibitory Concentration (MIC)
Outline: as §1

Ps. aeruginosa IF03445 = assay: as above; format: cell-based, Pseudomonas aeruginosa; conditions: Pseudomonas aeruginosa, 10^6 CFU/ml
Outline: as §1

A. calcoaceticus No. 4 = assay: as above; format: cell-based, Acinetobacter calcoaceticus; conditions: Acinetobacter calcoaceticus, NO.4, 16 h, A. calcoaceticus No. 4; 10^6 CFU/ml; read-out: Minimum Inhibitory Concentration (MIC)
Outline: as §1

E. coli CSH2 (RK1) = assay: microbe, parasite or virus in culture; format: cell-based; conditions: Escherichia coli, 16 h, read-out: Minimum Inhibitory Concentration (MIC), *E. coli CSH2 (RK1), lactamase-producing strain; 10^6 CFU/ml
Outline: as §1

E. coli CSH(RE45) = assay: microbe, parasite or virus in culture; format: cell-based; conditions: Escherichia coli, 16 h, read-out: Minimum Inhibitory Concentration (MIC), *E. coli CSH(RE45), lactamase-producing strain; 10^6 CFU/ml
Outline: as §1

P. vulgaris HX-19 = assay: in vitro antibacterial activity, agar plate dilution method (MIC); format: cell-based; conditions: Proteus vulgaris, HX19, 16 h, P. vulgaris HX-19; 10^6 CFU/ml; read-out: Minimum Inhibitory Concentration (MIC)
Outline: as §1

K. pneumoniae PCI-602 = assay: as above; format: cell-based; conditions: Klebsiella pneumoniae, PCI602, 16 h, 10^6 CFU/ml
Outline: as §1

S. aureus 209P NIHJ-JC1 = assay: as above; format: cell-based; conditions: Staphylococcus aureus, 16 h, 10^6 CFU/ml, 37° C., 16 hours
Outline: as §1

M. morganii GN5407 = assay: as above; format: cell-based; conditions: Morganella morganii, GN5407, 16 h, read-out: Minimum Inhibitory Concentration (MIC), *M. morganii GN5407, lactamase-producing strain; 10^6 CFU/ml
Outline: as §1

P. vulgaris No. 33 = assay: as above; format: cell-based; conditions: Proteus vulgaris, NO.33, 16 h, read-out: Minimum Inhibitory Concentration (MIC), *P. vulgaris No. 33, lactamase-producing strain; 10^6 CFU/ml
Outline: as §1

E. coli NIHJ JC2 = assay: as above; format: cell-based; conditions: Escherichia coli, NIHJJC2, 16 h, read-out: Minimum Inhibitory Concentration (MIC), E. coli NIHJ JC2, 10^6 CFU/ml, 37° C.
Outline: as §1

S. marcescens No. 16-2 = assay: as above; format: cell-based; conditions: Serratia marcescens, NO.162, 16 h; *S. marcescens No. 16-2, lactamase-producing strain; 10^6 CFU/ml; read-out: Minimum Inhibitory Concentration (MIC)
Outline: as §1

E. coli GN5482 = assay: as above; format: cell-based; conditions: Escherichia coli
Outline: as §1

S. marcescens IAM 1184 = assay: as above; format: cell-based; conditions: Serratia marcescens, IAM1184, 16 h, read-out: Minimum Inhibitory Concentration (MIC)
Outline: as §1

E. cloacae Nek 39 = assay: as above; format: cell-based; conditions: Enterobacter cloacae, NEK39, 16 h, 10^6 CFU/ml
Outline: as §1

K. pneumoniae No. 42 = assay: as above; format: cell-based; conditions: Klebsiella pneumoniae, 10^6 CFU/ml
Outline: as §1

K. oxytoca GN10650 = assay: as above; format: cell-based; conditions: Klebsiella oxytoca, 10^6 CFU/ml
Outline: as §1

E. cloacae 963 = assay: as above; format: cell-based; conditions: 10^6 CFU/ml
Outline: as §1

[1] = K. pneumoniae PCI-602, read-out: Minimum Inhibitory Concentration (MIC)
[2] = read-out: Minimum Inhibitory Concentration (MIC), *E. cloacae Nek 39, lactamase-producing strain
[3] = NO.42, 16 h, read-out: Minimum Inhibitory Concentration (MIC), *K. pneumoniae No. 42, lactamase-producing strain
[4] = GN10650, 16 h, read-out: Minimum Inhibitory Concentration (MIC), *K. oxytoca GN10650, lactamase-producing strain
[5] = Enterobacter cloacae, 963, 16 h, read-out: Minimum Inhibitory Concentration (MIC), E. cloacae 963
[6] = Ps. aeruginosa AK 109, 10^6 CFU/ml
[7] = 16 h, Ps. aeruginosa IF03445, read-out: Minimum Inhibitory Concentration (MIC)
[8] = read-out: Minimum Inhibitory Concentration (MIC), S. aureus 209P NIHJ-JC1

SMILES | MIC (Ps. cepacia 23) [µg/mL] | MIC (Ps. aeruginosa AKR17) [µg/mL] | MIC (A. calcoaceticus No. 4) [µg/mL] | MIC (E. coli CSH2 (RK1)) [µg/mL] | MIC (E. coli CSH(RE45)) [µg/mL] | MIC (P. vulgaris HX-19) [µg/mL] | MIC (K. pneumoniae PCI-602; [1]) [µg/mL] | MIC (M. morganii GN5407) [µg/mL] | MIC (P. vulgaris No. 33) [µg/mL] | MIC (E. coli NIHJ JC2) [µg/mL] | MIC (S. marcescens No. 16-2) [µg/mL] | MIC (E. cloacae Nek 39; [2]) [µg/mL] | MIC (K. pneumoniae No. 42; [3]) [µg/mL] | MIC (K. oxytoca GN10650; [4]) [µg/mL] | MIC (E. cloacae 963; [5]) [µg/mL] | MIC (Ps. aeruginosa AK 109; [6]) [µg/mL] | MIC (Ps. aeruginosa IF03445; [7]) [µg/mL] | MIC (S. aureus 209P NIHJ-JC1; [8]) [µg/mL] | MIC (S. marcescens IAM 1184) [µg/mL] | also measured
CC(C)(O/N=C(\C(=O)N[C@@H]1C(=O)N2C(C(=O)O)=C(CSc3nc(C(=O)O)c(-c4ccccc4)s3)CS[C@H]12)c1csc(N)n1)C(=O)O [compound 14, reference compound] | 0.78 (≈ 1.11 µM) | > 100 | 50 (≈ 70.9 µM) | 1.56 (≈ 2.21 µM) | 1.56 (≈ 2.21 µM) | < 0.006 | 0.2 (≈ 0.284 µM) | 0.2 (≈ 0.284 µM) | 0.025 (≈ 0.0355 µM) | 1.56 (≈ 2.21 µM) | 25 (≈ 35.5 µM) | 12.5 (≈ 17.7 µM) | 1.56 (≈ 2.21 µM) | 1.56 (≈ 2.21 µM) | 1.56 (≈ 2.21 µM) |  |  |  |  | MIC (Ps. aeruginosa AK 109): 12.5 µg/mL (≈ 17.7 µM); MIC (Ps. aeruginosa IF03445; IF03445, 16 h, read-out: Minimum Inhibitory Concentration (MIC), Ps. aeruginosa IF03445): 12.5 µg/mL (≈ 17.7 µM); MIC (S. aureus 209P NIHJ-JC1; S. aureus 209P NIHJ-JC1, read-out: Minimum Inhibitory Concentration (MIC)): 50 µg/mL (≈ 70.9 µM); MIC (E. coli GN5482; 16 h, *E. coli GN5482, lactamase-producing strain, 10^6 CFU/ml, read-out: Minimum Inhibitory Concentration (MIC)): 3.12 µg/mL (≈ 4.43 µM); MIC (S. marcescens IAM 1184; S. marcescens IAM 1184, 10^6 CFU/ml): 0.1 µg/mL (≈ 0.142 µM)
CC(C)(O/N=C(\C(=O)N[C@@H]1C(=O)N2C(C(=O)O)=C(CSc3ncc(-c4ccccc4)o3)CS[C@H]12)c1csc(N)n1)C(=O)O [compound 22, disodium 7β-[2-(2-aminothiazol-4-yl)-2-(1-carboxylate-1-methylethoxyimino)acetamido]-3(5-phenyloxazol-2-yl)thiomethyl-3-cephem-4-carboxylate, reference compound] | 12.5 | > 100 | > 100 | 3.12 | 3.12 | < 0.006 |  | 6.25 | 0.78 | 12.5 | 25 |  | 12.5 | 6.25 | 12.5 | 50 | 50 | 6.25 | 3.12 | MIC (K. pneumoniae PCI-602; read-out: Minimum Inhibitory Concentration (MIC), K. pneumoniae PCI-602): 0.1 µg/mL; MIC (E. coli GN5482; GN5482, 16 h, read-out: Minimum Inhibitory Concentration (MIC)): 3.12 µg/mL; MIC (E. cloacae Nek 39; *E. cloacae Nek 39, lactamase-producing strain, read-out: Minimum Inhibitory Concentration (MIC)): 25 µg/mL
CO/N=C(\C(=O)N[C@@H]1C(=O)N2C(C(=O)O)=C(CSc3nnc(-c4ccc(O)cc4)o3)CS[C@H]12)c1csc(N)n1 [compound 2, reference compound] | 12.5 (≈ 21.2 µM) | > 100 | 50 (≈ 84.8 µM) | 0.78 (≈ 1.32 µM) | 0.39 (≈ 0.661 µM) | < 0.006 | 0.0125 (≈ 0.0212 µM) | 0.78 (≈ 1.32 µM) | 0.78 (≈ 1.32 µM) | 0.78 (≈ 1.32 µM) | 25 (≈ 42.4 µM) | 6.25 (≈ 10.6 µM) |  |  |  | 50 (≈ 84.8 µM) | 100 (≈ 170 µM) | 0.78 (≈ 1.32 µM) | 0.78 (≈ 1.32 µM) | MIC (E. coli GN5482; GN5482, 16 h, read-out: Minimum Inhibitory Concentration (MIC), *E. coli GN5482, lactamase-producing strain, 10^6 CFU/ml): 0.78 µg/mL (≈ 1.32 µM); MIC (K. pneumoniae No. 42; 16 h, *K. pneumoniae No. 42, lactamase-producing strain, read-out: Minimum Inhibitory Concentration (MIC)): 1.56 µg/mL (≈ 2.65 µM); MIC (K. oxytoca GN10650; 16 h, *K. oxytoca GN10650, lactamase-producing strain, read-out: Minimum Inhibitory Concentration (MIC)): 25 µg/mL (≈ 42.4 µM); MIC (E. cloacae 963; Enterobacter cloacae, 16 h, E. cloacae 963, read-out: Minimum Inhibitory Concentration (MIC)): 1.56 µg/mL (≈ 2.65 µM)
